Results: patent US8188078B2 (Sanofi-Aventis, priority 2007, dated 2012)

Tests used:
[1] = molecular target: T1, c-MET (Homo sapiens, UniProt P08581); assay: Test A: HTRF Met test in 96-well format; format: biochemical
T1 construct: The recombinant DNA His-Tev-MET (956-1390) in pFastBac(Invitrogen); His (N, cleaved yes); Tev (TEV protease site) (N, cleaved yes); made in house; host or cells: SF21 insect cells (baculovirus, pFastBac)
Summary of the method: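 The kinase was the Sf21-expressed MET cytoplasmic domain (956–1390), His tag removed, used at 5 nM with compound (0.17 nM–10 µM, 3% DMSO) in 10 mM MOPS pH 7.4. Poly-GAT 1 µg/ml, 10 µM ATP and 5 mM MgCl2 reacted 10 min at RT. After an EDTA stop, phosphotyrosine was detected by HTRF (665/620 ratio).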

T1 sequence (P08581 956-1390): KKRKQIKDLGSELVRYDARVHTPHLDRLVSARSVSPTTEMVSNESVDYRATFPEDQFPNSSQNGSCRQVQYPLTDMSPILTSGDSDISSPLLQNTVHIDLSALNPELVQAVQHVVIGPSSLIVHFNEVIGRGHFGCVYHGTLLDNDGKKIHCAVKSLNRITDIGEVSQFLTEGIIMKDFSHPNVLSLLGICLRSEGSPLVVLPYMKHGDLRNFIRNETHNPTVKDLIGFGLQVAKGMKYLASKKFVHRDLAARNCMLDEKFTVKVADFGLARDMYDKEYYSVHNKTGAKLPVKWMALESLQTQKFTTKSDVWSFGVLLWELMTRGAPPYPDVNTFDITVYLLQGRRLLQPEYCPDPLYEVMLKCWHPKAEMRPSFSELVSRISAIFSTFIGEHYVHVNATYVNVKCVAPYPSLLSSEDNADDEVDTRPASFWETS

melting point [°C] | IC50 [1] [nM] | Compound
110 to 115 | < 100 | CC(Oc1ccc2nc(NC(=O)NCCN3CCCC3)sc2c1)c1c(F)ccc(Cl)c1Cl (centres unmarked) [Example 120, 1-{6-[1-(2,3-dichloro-6-fluorophenyl)ethoxy]-1,3-benzothiazol-2-yl}-3-[2-(pyrrolidin-1-yl)ethyl]urea]
210 | < 100 | CC(Oc1ccc2nc(NC(=O)NCCN3CCOCC3)[nH]c2c1)c1cc(F)ccc1Cl (centres unmarked) [Example 3, 1-{6-[1-(2-chloro-5-fluorophenyl)ethoxy]-1H-benzimidazol-2-yl}-3-(2-morpholin-4-ylethyl)urea]
200 to 205 | < 100 | CC(Oc1cc2sc(NC(=O)NCCN3CCOCC3)nc2cc1F)c1c(Cl)cccc1Cl (centres unmarked) [Example 29, 1-{6-[1-(2,6-dichlorophenyl)ethoxy]-5-fluoro-1,3-benzothiazol-2-yl}-3-(2-morpholin-4-ylethyl)urea]
187 | < 100 | CC(Oc1ccc2nc(NC(=O)NCCN3CCOCC3)sc2c1)c1c(F)ccc(F)c1F (centres unmarked) [Example 60, 1-(2-morpholin-4-ylethyl)-3-{6-[1-(2,3,6-trifluorophenyl)ethoxy]-1,3-benzothiazol-2-yl}urea]
188 to 190 | < 100 | CC(Oc1cc2sc(NC(=O)CN3CCNCC3)nc2cc1F)c1c(Cl)ccc(F)c1Cl (centres unmarked) [Example 69, N-{6-[1-(2,6-dichloro-3-fluorophenyl)ethoxy]-5-fluoro-1,3-benzothiazol-2-yl}-2-(piperazin-1-yl)acetamide]
158 | < 100 | CC(Oc1cc2sc(NC(=O)NCCCO)nc2cc1F)c1c(Cl)ccc(F)c1Cl (centres unmarked) [Example 105, 1-{6-[1-(2,6-dichloro-3-fluorophenyl)ethoxy]-5-fluoro-1,3-benzothiazol-2-yl}-3-(3-hydroxypropyl)urea]
206 | < 100 | O=C(NCCN1CCOCC1)Nc1nc2cc(F)c(OCc3c(Cl)cccc3Cl)cc2s1 [Example 21, 1-{6-[(2,6-dichlorobenzyl)oxy]-5-fluoro-1,3-benzothiazol-2-yl}-3-(2-morpholin-4-ylethyl)urea]
103 to 107 | < 100 | CC(Oc1cc2sc(NC(=O)NCCN3CCCC3)nc2cc1F)c1c(Cl)ccc(Cl)c1Cl (centres unmarked) [Example 126, 1-{5-fluoro-6-[1-(2,3,6-trichlorophenyl)ethoxy]-1,3-benzothiazol-2-yl}-3-[2-(pyrrolidin-1-yl)ethyl]urea]
165 to 168 | < 100 | CC(Oc1ccc2nc(NC(=O)NCCN3CCOCC3)sc2c1)c1c(Cl)cccc1Cl (centres unmarked) [Example 17, 1-{6-[1-(2,6-dichlorophenyl)ethoxy]-1,3-benzothiazol-2-yl}-3-(2-morpholin-4-ylethyl)urea]
191 | < 100 | CC(Oc1cc2sc(NC(=O)NCCN3CCCC3)nc2cc1F)c1c(F)ccc(Cl)c1Cl (centres unmarked) [Example 118, 1-{6-[1-(2,3-dichloro-6-fluorophenyl)ethoxy]-5-fluoro-1,3-benzothiazol-2-yl}-3-[2-(pyrrolidin-1-yl)ethyl]urea]
235 to 238 | < 100 | CC(Oc1cc2sc(NC(=O)NCC(=O)N3CCN(C)CC3)nc2cc1F)c1c(Cl)ccc(F)c1Cl (centres unmarked) [Example 129, 1-{6-[1-(2,6-dichloro-3-fluorophenyl)ethoxy]-5-fluoro-1,3-benzothiazol-2-yl}-3-[2-(4-methylpiperazin-1-yl)-2-oxoethyl]urea]
153 to 157 | < 100 | CC(Oc1cc2sc(NC(=O)CCCN3CCCC3)nc2cc1F)c1c(Cl)ccc(F)c1Cl (centres unmarked) [Example 68, N-{6-[1-(2,6-dichloro-3-fluorophenyl)ethoxy]-5-fluoro-1,3-benzothiazol-2-yl}-4-(pyrrolidin-1-yl)butanamide]
220 to 225 | < 100 | CC(Oc1cc2sc(NC(=O)NCCN3CCOCC3)nc2cc1F)c1c(F)ccc(Cl)c1Cl (centres unmarked) [Example 111, 1-{6-[1-(2,3-dichloro-6-fluorophenyl)ethoxy]-5-fluoro-1,3-benzothiazol-2-yl}-3-[2-(morpholin-4-yl)ethyl]urea]
200 | < 100 | CC(Oc1ccc2nc(NC(=O)NCCN3CCOCC3)sc2c1)c1c(F)ccc(Cl)c1Cl (centres unmarked) [Example 61, 1-{6-[1-(2,3-dichloro-6-fluorophenyl)ethoxy]-1,3-benzothiazol-2-yl}-3-(2-morpholin-4-ylethyl)urea]
210 to 216 | < 100 | CC(Oc1cc2[nH]c(NC(=O)NCCN3CCOCC3)nc2cc1F)c1c(Cl)cccc1Cl (centres unmarked) [Example 5, 1-{6-[1-(2,6-dichlorophenyl)ethoxy]-5-fluoro-1H-benzimidazol-2-yl}-3-(2-morpholin-4-ylethyl)urea]
163 | < 100 | CC(Oc1cc2sc(NC(=O)NCCCN)nc2cc1F)c1c(Cl)ccc(F)c1Cl (centres unmarked) [Example 128, 1-(3-aminopropyl)-3-{6-[1-(2,6-dichloro-3-fluorophenyl)ethoxy]-5-fluoro-1,3-benzothiazol-2-yl}urea]
87 | < 100 | CC(Oc1ccc2nc(NC(=O)NCCN3CCN(C(=O)OC(C)(C)C)CC3)sc2c1)c1c(Cl)ccc(F)c1Cl (centres unmarked) [Example 36, 1,1-dimethylethyl 4-{2-[({6-[1-(2,6-dichloro-3-fluorophenyl)ethoxy]-1,3-benzothiazol-2-yl}carbamoyl)amino]ethyl}piperazine-1-carboxylate]
178 to 184 | < 100 | CC(Oc1cc2sc(NC(=O)NCCOCC3CC3)nc2cc1F)c1c(Cl)ccc(F)c1Cl (centres unmarked) [Example 103, 1-[2-(cyclopropylmethoxy)ethyl]-3-{6-[1-(2,6-dichloro-3-fluorophenyl)ethoxy]-5-fluoro-1,3-benzothiazol-2-yl}urea]
194 to 199 | < 100 | CC(Oc1ccc2nc(NC(=O)C3CC3)sc2c1)c1c(Cl)ccc(F)c1Cl (centres unmarked) [Example 66, N-{6-[1-(2,6-dichloro-3-fluorophenyl)ethoxy]-1,3-benzothiazol-2-yl}cyclopropanecarboxamide]
175 | < 100 | COCCCNC(=O)Nc1nc2cc(F)c(OC(C)c3c(Cl)ccc(F)c3Cl)cc2s1 (centres unmarked) [Example 104, 1-{6-[1-(2,6-dichloro-3-fluorophenyl)ethoxy]-5-fluoro-1,3-benzothiazol-2-yl}-3-(3-methoxypropyl)urea]
105 to 110 | < 100 | CC(Oc1ccc2nc(NC(=O)NCCN3CCN(C)CC3)sc2c1)c1c(F)ccc(Cl)c1Cl (centres unmarked) [Example 108, 1-{6-[1-(2,3-dichloro-6-fluorophenyl)ethoxy]-1,3-benzothiazol-2-yl}-3-[2-(4-methylpiperazin-1-yl)ethyl]urea]
120 | < 100 | CC(Oc1cc2sc(NC(=O)NCCN3CCN(C)CC3)nc2cc1F)c1c(F)ccc(Cl)c1Cl (centres unmarked) [Example 115, 1-{6-[1-(2,3-dichloro-6-fluorophenyl)ethoxy]-5-fluoro-1,3-benzothiazol-2-yl}-3-[2-(4-methylpiperazin-1-yl)ethyl]urea]
196 to 198 | < 100 | CC(Oc1cc2sc(NC(=O)NCCN3CCOCC3)nc2cc1Cl)c1c(Cl)ccc(F)c1Cl (centres unmarked) [Example 106, 1-{5-chloro-6-[1-(2,6-dichloro-3-fluorophenyl)ethoxy]-1,3-benzothiazol-2-yl}-3-[2-(morpholin-4-yl)ethyl]urea]
– | < 100 | CC(Oc1ccc2nc(NC(=O)NCCN3CCOCC3)sc2c1)c1ccccc1C(F)(F)F (centres unmarked) [Example 19, 1-(2-morpholin-4-ylethyl)-3-(6-{1-[2-(trifluoromethyl)phenyl]ethoxy}-1,3-benzothiazol-2-yl)urea]
– | < 100 | CC(Oc1ccc2nc(NC(=O)NCc3cccnc3)sc2c1)c1c(Cl)ccc(F)c1Cl (centres unmarked) [Example 59, 1-{6-[1-(2,6-dichloro-3-fluorophenyl)ethoxy]-1,3-benzothiazol-2-yl}-3-(pyridin-3-ylmethyl)urea]
– | < 100 | CC(Oc1cc2sc(NC(=O)NCCN3CCOCC3)nc2cc1F)c1c(F)ccc(Cl)c1Cl (single isomer, unassigned) [Example 113, 1-{6-[(1S*)-1-(2,3-dichloro-6-fluorophenyl)ethoxy]-5-fluoro-1,3-benzothiazol-2-yl}-3-[2-(morpholin-4-yl)ethyl]urea]
– | < 100 | CC(Oc1ccc2nc(NC(=O)NCCCn3cccc3)sc2c1)c1c(Cl)ccc(F)c1Cl (centres unmarked) [Example 40, 1-{6-[1-(2,6-dichloro-3-fluorophenyl)ethoxy]-1,3-benzothiazol-2-yl}-3-[3-(1H-pyrrol-1-yl)propyl]urea]
– | < 100 | CC(Oc1ccc2nc(NC(=O)NCCCN3CCN(Cc4c(F)cccc4Cl)CC3)sc2c1)c1c(Cl)ccc(F)c1Cl (centres unmarked) [Example 46, 1-{3-[4-(2-chloro-6-fluorobenzyl)piperazin-1-yl]propyl}-3-{6-[1-(2,6-dichloro-3-fluorophenyl)ethoxy]-1,3-benzothiazol-2-yl}urea]
– | < 100 | CCN1CCN(CCNC(=O)Nc2nc3cc(F)c(OC(C)c4c(Cl)ccc(F)c4Cl)cc3s2)CC1 (single isomer, unassigned) [Example 101, 1-{6-[(1R*)-1-(2,6-dichloro-3-fluorophenyl)ethoxy]-5-fluoro-1,3-benzothiazol-2-yl}-3-[2-(4-ethylpiperazin-1-yl)ethyl]urea]
– | < 100 | C[C@@H](Oc1cc2sc(NC(=O)NCCN3CCOCC3)nc2cc1F)c1c(Cl)ccc(F)c1Cl (single isomer, unassigned) [Example 33, 1-{6-[(1R)-(2,6-dichloro-3-fluorophenyl)ethoxy]-5-fluoro-1,3-benzothiazol-2-yl}-3-(2-morpholin-4-ylethyl)urea or 1-{6-[(1S)-(2,6-dichloro-3-fluorophenyl)ethoxy]-5-fluoro-1,3-benzothiazol-2-yl}-3-(2-morpholin-4-ylethyl)urea]
